# Assay results taken from patent US11680086B2, “Lipopeptide for potently inhibiting HIV, derivative thereof, pharmaceutical composition thereof and use thereof” (Institute of Pathogen Biology, Chinese Academy of Medical …, priority 2017, dated 2023).
# Peptide text beside a SMILES is read from it. * marks the point of attachment. X1 = Cc1c(C)c2c(c(C)c1OC(=O)CCC(=O)*)CCC(C)(CCCC(C)CCCC(C)CCCC(C)C)O2; Stearoyl = CCCCCCCCCCCCCCCCCC(=O)*; Palmitoyl = CCCCCCCCCCCCCCCC(=O)*
# How the values were obtained:
# [1] = tested on: NL4-3 pseudovirus carrying T-20 resistance mutation site of NHR; test: inhibition of T-20 resistant strains; type: cell-based, HIV-1; settings: strains with single or double mutations
# [2] = circular dichroism secondary structure analysis of the inhibitors themselves; type: physicochemical; settings: for secondary structure of the inhibitor itself (in words): 10 μM, 20 μM and 40 μM in PBS
# Procedure: The circular dichroism spectrophotometer was Jasco-815 by JASCO Inc., and the assay method was referred to the papers published by the inventors (see the References 18 and 30 listed in the Background Art). […] The N39 and an inhibitor were separately dissolved in a phosphate buffered saline (PBS) to prepare a PBS solution (pH 7.2) of a concentration of 20 μM. The N39 was mixed with an inhibitor at a volume ratio of 1:1 (final concentration of 10 μM for each), the mixed sample was placed at 37° C. for 30 minutes to fully react, and then the helix content and Tm value of the resultant complex were measured by the circular dichroism spectrophotometer. The scan wavelength range of the device was 195-260 nm with a wavelength interval of 1 nm, and the values measured by scanning for three times were averaged. Based on the CD signals, the interaction between the polypeptides and the helix content were determined. Then, the sample for CD signal measurement was transferred to the temperature scanning sample cell, the program of the CD device was set to temperature scanning with a detection wavelength of 220 nm and scanning range of 20-98° C., and the program scan was performed to obtain the curve of the CD signals vs temperature, based on which the Tm value was calculated. Based on the Tm value, the stability of the formed helical structure of the inhibitor and N39 was judged.
# For easy analysis, the α-helix content and the Tm value of the inhibitors were measured at concentrations of 10 μM, 20 μM, and 40 μM (PBS solution), respectively.
# [3] = tested on: SIV pseudoviruses SIVpbj and SIV239; test: inhibition of SIV pseudoviruses; type: cell-based
# Procedure: (§1) The supernatant was discarded from the wells. […] Inhibition rate (%) and IC50 value were calculated.
# (§2) In order to further reflect the antiviral advantages of the potent lipopeptides of the present invention, their inhibitory activity against HIV-2 and SIV was determined in the example. The methods of antiviral activity assays used were described in the literatures published by the present inventors (see the References 13 and 30 listed in the Background Art). The molecular cloning plasmid pROD of the HIV-2 strain ROD (HIV-2ROD) was kindly provided by Professor Nuno Taveira from the University of Lisbon, Portugal, and the plasmids expressing the SIV strain SIVpbj (SIVPBJ) and SIV239 envelope proteins (pSIVpbj-Env and pSIV239, respectively) were kindly provided by Professor Xu Jianqing from the Fudan University. The preparation of the infectious ROD was the same as that of the infectious JRCSF in the above section 2.1, and the pseudoviruses SIVpbj and SIV239 were prepared by a method same as that described in the above Examples 2 and 3.
# [4] = tested on: HIV-2 strain ROD (infectious); test: inhibition of HIV-2; type: cell-based; settings: HIV-2 ROD
# Procedure: (§3) Inhibition rate (%) and IC50 value were calculated.
# as §2
# [5] = tested on: HIV-1 strain NL4-3 pseudovirus (D36G mutant); type: cell-based
# Procedure: as §1
# [6] = tested on: HIV-1 strain JRCSF; type: cell-based
# Procedure: as §3
# [7] = pharmacokinetic analysis in SD rats; settings: for level at 72 h / level at time molar at 72 h: both, SD, rat, serum, 6 mg/kg
# Procedure: The pharmacokinetic parameters were calculated using a non-compartmental analysis model (NCA).
# [8] = tested on: HIV-1; settings: cell fusion, entry and replication; compared with parent or control peptide
# Description: HIV-1 pseudovirus-mediated cell entry inhibition assay: basic steps included: (1) Preparation of HIV-1 pseudovirus: the 293T cells were co-transfected with a plasmid expressing the envelope protein (Env) of HIV-1 strain NL4-3 (i.e., a recombinant expression plasmid obtained by inserting the gene encoding the envelope protein (ENV) of the D36G mutant of the HIV-1 strain NL4-3 in the Table 2 of the Reference 14 listed in the Background Art into the vector pcDNA3.1(−)) and the HIV-1 backbone plasmid pSG3Δenv (provided by the AIDS Reagent Program of National Institutes of Health (NIH), catalog number: 11051) by using a cell transfection reagent, incubated in a cell incubator of 37° C. and 5% CO2 for 6 hours, and then the medium was changed, and the cells were further incubated for 48 hours. The cell culture supernatant containing pseudovirus particles was pipetted and filtered with a 0.45 μm filter to collect the supernatant, then 20% fetal bovine serum (FBS) was added thereto, the final solution was transferred to a polypropylene tube, and stored at −80° C. for ready for use or directly subjected to virus titration. (2) Titration of HIV-1 pseudovirus: the viruses were diluted by 5 folds in a 96-well plate, and 4 replicate wells with 8 gradients were set to a final volume of 100 microliters. The TZM-b1 cells were trypsinized and counted, and the cells were diluted to 1×10^5 cells/ml with DMEM complete medium; 100 μl of cells dilution (containing 15 μg/ml DEAE-dextran) per well were added and cultured at 37° C. and 5% CO2 for 48 hours. The 96-well plate was then taken from the cell culture incubator. The supernatant was discarded from the wells. To each well, 30 μl of a cell lysate was added, and after 10 minutes, 100 μl of a luciferase detection reagent was added. 100 μl of liquid was pipetted from each well and added to a corresponding 96-well white plate, and the luminescence values were read by a microplate photometer. The virus titer was calculated by the Reed-Muench method. […]
SMILES,inhibitory activity against T-20 resistant strains (in words) [1],secondary structure of the inhibitor itself (in words) [2],inhibitory activity against SIV (in words) [3],inhibitory activity against HIV-2 (in words) [4],"inhibitory activity as folds of that of T-20 ([5]; NL4-3 pseudovirus entry, relative to T-20) [folds]","inhibitory activity further improved, folds ([5]; NL4-3 pseudovirus, relative to LP-50)","inhibitory activity as folds of that of T-20 ([6]; JRCSF replication, relative to T-20) [folds]","inhibitory activity further improved, folds ([6]; replicative JRCSF virus, relative to LP-50) [folds]",helix content and Tm value of the inhibitor itself (in words) ([2]; among the four potent lipopeptides),serum concentration as folds of the IC50 value (2 pM) ([7]; 72 hours after intravenous injection) [folds],serum concentration as folds of the IC50 value (2 pM) ([7]; 72 hours after subcutaneous injection) [folds],level at 72 h ([7]; iv) [ng/mL],level at time molar at 72 h ([7]; iv) [nM],level at 72 h ([7]; sc) [ng/mL],level at time molar at 72 h ([7]; sc) [nM],"IC50 ([5]; Entry of NL4-3 (D36G), read-out: IC50 for inhibiting pseudovirus) [pM]",inhibitory activity against NL4-3 entry (in words) ([5]; compared with LP-52),"IC50 ([6]; Replication of JRCSF, read-out: IC50 for inhibiting replicative virus) [pM]",inhibitory activity against JRCSF replication (in words) ([6]; compared with LP-52),antiviral activity (in words) [8]
CCCCCCCCCCCCCCCC(=O)NCCCC[C@H](NC(=O)[C@H](CCC(=O)O)NC(=O)[C@H](CC(C)C)NC(=O)[C@H](CCCCN)NC(=O)[C@H](CCCCN)NC(=O)[C@H](CC(C)C)NC(=O)[C@H](CCC(=O)O)NC(=O)[C@H](CCC(=O)O)NC(=O)[C@H](CCC(=O)O)NC(=O)[C@H](CC(N)=O)NC(=O)[C@H](CCCCN)NC(=O)[C@H](CCCCN)NC(=O)[C@H](CCC(N)=O)NC(=O)[C@H](CCC(N)=O)NC(=O)[C@H](CCC(=O)O)NC(=O)[C@H](CCC(=O)O)NC(=O)[C@H](C)NC(=O)[C@H](CCCCN)NC(=O)[C@H](CCCCN)NC(=O)[C@H](CC(C)C)NC(=O)[C@H](CC(C)C)NC(=O)[C@H](CCC(=O)O)NC(=O)[C@H](CCC(=O)O)NC(=O)[C@@H](NC(=O)[C@H](CCCCN)NC(=O)[C@H](CCC(N)=O)NC(=O)[C@H](CCC(=O)O)NC(=O)[C@H](Cc1c[nH]c2ccccc12)NC(C)=O)[C@@H](C)CC)C(N)=O [LP-52] (Ac-WEQKIEELLKKAEEQQKKNEEELKKLEK(Palmitoyl)-NH2),thousands to tens of thousands of times better than that of the LP-40,distinct helical structure,extremely potent inhibitory activity,extremely potent inhibitory activity,2353,about 2 folds,1038,~5,–,–,–,–,–,–,–,–,–,–,–,–
CCCCCCCCCCCCCCCCCC(=O)NCCCC[C@H](NC(=O)[C@H](CCC(=O)O)NC(=O)[C@H](CC(C)C)NC(=O)[C@H](CCCCN)NC(=O)[C@H](CCCCN)NC(=O)[C@H](CC(C)C)NC(=O)[C@H](CCC(=O)O)NC(=O)[C@H](CCC(=O)O)NC(=O)[C@H](CCC(=O)O)NC(=O)[C@H](CC(N)=O)NC(=O)[C@H](CCCCN)NC(=O)[C@H](CCCCN)NC(=O)[C@H](CCC(N)=O)NC(=O)[C@H](CCC(N)=O)NC(=O)[C@H](CCC(=O)O)NC(=O)[C@H](CCC(=O)O)NC(=O)[C@H](C)NC(=O)[C@H](CCCCN)NC(=O)[C@H](CCCCN)NC(=O)[C@H](CC(C)C)NC(=O)[C@H](CC(C)C)NC(=O)[C@H](CCC(=O)O)NC(=O)[C@H](CCC(=O)O)NC(=O)[C@@H](NC(=O)[C@H](CCCCN)NC(=O)[C@H](CCC(N)=O)NC(=O)[C@H](CCC(=O)O)NC(=O)[C@H](Cc1c[nH]c2ccccc12)NC(C)=O)[C@@H](C)CC)C(N)=O [LP-80] (Ac-WEQKIEELLKKAEEQQKKNEEELKKLEK(Stearoyl)-NH2),thousands to tens of thousands of times better than that of the LP-40,distinct helical structure,extremely potent inhibitory activity,extremely potent inhibitory activity,–,–,–,–,the higher helix content and Tm value,1010.56,894.51,7.75,2.02,6.86,1.79,2,even greater than that of C16-modified LP-52,2,even greater than that of C16-modified LP-52,–
CC[C@H](C)[C@H](NC(=O)[C@H](CCCCN)NC(=O)[C@H](CCC(N)=O)NC(=O)[C@H](CCC(=O)O)NC(=O)[C@H](Cc1c[nH]c2ccccc12)NC(C)=O)C(=O)N[C@@H](CCC(=O)O)C(=O)N[C@@H](CCC(=O)O)C(=O)N[C@@H](CC(C)C)C(=O)N[C@@H](CC(C)C)C(=O)N[C@@H](CCCCN)C(=O)N[C@@H](CCCCN)C(=O)N[C@@H](C)C(=O)N[C@@H](CCC(=O)O)C(=O)N[C@@H](CCC(=O)O)C(=O)N[C@@H](CCC(N)=O)C(=O)N[C@@H](CCC(N)=O)C(=O)N[C@@H](CCCCN)C(=O)N[C@@H](CCCCN)C(=O)N[C@@H](CC(N)=O)C(=O)N[C@@H](CCC(=O)O)C(=O)N[C@@H](CCC(=O)O)C(=O)N[C@@H](CCC(=O)O)C(=O)N[C@@H](CC(C)C)C(=O)N[C@@H](CCCCN)C(=O)N[C@@H](CCCCN)C(=O)N[C@@H](CC(C)C)C(=O)N[C@@H](CCC(=O)O)C(=O)N[C@@H](CCCCNC(=O)CCC(=O)Oc1c(C)c(C)c2c(c1C)CCC(C)(CCCC(C)CCCC(C)CCCC(C)C)O2)C(N)=O (stereo partly shown) [LP-85] (Ac-WEQKIEELLKKAEEQQKKNEEELKKLEK(X1)-NH2),thousands to tens of thousands of times better than that of the LP-40,–,extremely potent inhibitory activity,extremely potent inhibitory activity,–,–,–,–,–,–,–,–,–,–,–,–,–,–,–,strong antiviral effects
CCCCCCCCCCCCCCCCCC(=O)NCCCC[C@H](NC(=O)[C@H](CCC(=O)O)NC(=O)[C@H](CC(C)C)NC(=O)[C@H](CCCCN)NC(=O)[C@H](CCCCN)NC(=O)[C@H](CC(C)C)NC(=O)[C@H](CCC(=O)O)NC(=O)[C@H](CCC(=O)O)NC(=O)[C@H](CCC(=O)O)NC(=O)[C@H](CC(N)=O)NC(=O)[C@H](CCCCN)NC(=O)[C@H](CCCCN)NC(=O)[C@H](CCC(N)=O)NC(=O)[C@H](CCC(N)=O)NC(=O)[C@H](CCC(=O)O)NC(=O)[C@H](CCC(=O)O)NC(=O)[C@H](C)NC(=O)[C@H](CCCCN)NC(=O)[C@H](CCCCN)NC(=O)[C@H](CC(C)C)NC(=O)[C@H](CC(C)C)NC(=O)[C@H](CCC(=O)O)NC(=O)[C@H](CCC(=O)O)NC(=O)[C@@H](NC(C)=O)[C@@H](C)CC)C(N)=O [LP-90] (Ac-IEELLKKAEEQQKKNEEELKKLEK(Stearoyl)-NH2),much lower active against T-20 resistant mutant strains than the LP-52 and LP-80,–,extremely potent inhibitory activity,extremely potent inhibitory activity,–,–,–,–,–,–,–,–,–,–,–,–,–,–,–,potent antiviral activity
